Like-named read-outs stand apart in the source and are kept apart here.
How the values were obtained:
angiotensin II = conditions: result in words, prior art; cited from earlier work
[1] = molecular target: smooth muscle angiotensin II receptor; assay: Assay A: Angiotensin II Binding Activity (displacement of 125I-angiotensin II, rat uterine membrane preparation); conditions: 50% displacement of specifically bound 125I-AII; rat uterine membranes, 25° C., 60 min, pH 7.5
Procedure: Compounds of the invention were tested for ability to bind to the smooth muscle angiotensin II receptor using a rat uterine membrane preparation. […] Other chemicals were obtained from Sigma Chemical Co. This assay was carried out according to the method of Douglas et al [Endocrinology, 106, 120-124 (1980)]. Rat uterine membranes were prepared from fresh tissue. All procedures were carried out at 4° C. Uteri were stripped of fat and homogenized in phosphate-buffered saline at pH 7.4 containing 5 mM EDTA. The homogenate was centrifuged at 1500×g for 20 min., and the supernatant was recentrifuged at 100,000×g for 60 min. The pellet was resuspended in buffer consisting of 2 mM EDTA and 50 mM Tris-HCl (pH 7.5) to a final protein concentration of 4 mg/ml. […] The reaction was initiated by the addition of membrane protein and the mixture was incubated at 25° C. for 60 min. The incubation was terminated with ice-cold 50 mM Tris-HCl (pH 7.5) and the mixture was filtered to separate membrane-bound labelled peptide from the free ligand. The incubation tube and filter were washed with ice-cold buffer. Filters were assayed for radioactivity in a Micromedic gamma counter. […] Specific binding was calculated as total binding minus nonspecific binding. […] Binding data were analyzed by a nonlinear least-squares curve fitting program.

[2] = molecular target: T1, rabbit aortic rings (angiotensin II response) (Oryctolagus cuniculus, UniProt P34976); assay: Assay B: In Vitro Vascular Smooth Muscle Response for AII (aortic rings); type: cell-based, rabbit (male New Zealand white)
T1 construct: The thoracic aorta was removed, cleaned of adherent fat and connective tissue; from tissue; host or cells: thoracic aorta rings without endothelium, male New Zealand white rabbit
T1 sequence (P34976 1-359): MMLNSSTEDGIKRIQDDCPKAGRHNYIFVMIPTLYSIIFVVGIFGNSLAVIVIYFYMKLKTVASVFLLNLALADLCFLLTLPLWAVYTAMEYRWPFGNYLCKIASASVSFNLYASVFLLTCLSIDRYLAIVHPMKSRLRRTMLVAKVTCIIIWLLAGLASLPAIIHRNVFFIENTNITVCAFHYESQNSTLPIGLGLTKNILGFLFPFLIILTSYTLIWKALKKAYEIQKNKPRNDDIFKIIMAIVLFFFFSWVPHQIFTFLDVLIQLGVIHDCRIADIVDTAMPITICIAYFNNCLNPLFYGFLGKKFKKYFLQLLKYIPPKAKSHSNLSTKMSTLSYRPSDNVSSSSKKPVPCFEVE
Procedure: The compounds of the invention were tested for antagonist activity in rabbit aortic rings. Male New Zealand white rabbits (2-2.5 kg) were sacrificed using an overdose of pentobarbital and exsanguinated via the carotid arteries. The thoracic aorta was removed, cleaned of adherent fat and connective tissue and then cut into 3-mm ring segments. The endothelium was removed from the rings by gently sliding a rolled-up piece of filter paper into the vessel lumen. The rings were then mounted in a water-jacketed tissue bath, maintained at 37° C., between moveable and fixed ends of a stainless steel wire with the moveable end attached to an FTO3 Grass transducer coupled to a Model 7D Grass Polygraph for recording isometric force responses. The bath was filled with 20 ml of oxygenated (95% oxygen/5% carbon dioxide) Krebs solution of the following composition (mM): 130 NaCl, 15 NaHCO3, […], 1.2 NaH2 PO4, 1.2 MgSO4, 2.5 CaCl2, and 11.4 glucose. The preparations were equilibrated for one hour before approximately one gram of passive tension was placed on the rings. Angiotensin II concentration-response curves were then recorded (3×10^-10 to 1×10^-5 M). […] The effectiveness of the test compound was expressed in terms of pA2 values and were calculated according to H. O. Schild [Br. J. Pharmacol. Chemother., 2, 189-206 (1947)]. […] Each test antagonist was evaluated in aorta rings from two rabbits.

[3] = tested on: angiotensin II pressor response; assay: Assay C: In Vivo Intraduodenal Pressor Assay Response for AII Antagonists; design: species or system rat (male Sprague-Dawley); conditions: 30 mg/kg i.d., average of two rats
Procedure: Angiotensin II injections were then given 5, 10, 20, 30, 45, 60, 75, 90, and 120 minutes after administration of the test compound and response of arterial pressure was monitored. […] Duration of action of a test compound was defined as the time from peak percent inhibition to 50% of peak.

[4] = result in words, prior art; cited from earlier work

Structure (SMILES)	angiotensin II antagonist activity (angiotensin II)	IC50 [1]	other results
CCCCc1nc(Cl)c(CC(=O)O)n1Cc1ccccc1[N+](=O)[O-] [(2-butyl-4-chloro-1-(2-nitrobenzyl)imidazole-5-acetic acid]	specific competitive angiotensin II antagonist activity	–	–
CCCCc1nc(CCCC)n(Cc2ccc(-n3c(Br)ccc3-c3nnn[nH]3)cc2)n1 [Example 3, 5-[1-[4-[(3,5-di-n-butyl-1H-1,2,4-triazol-1-yl)methyl]phenyl]-5-bromo-1H-pyrrol-2-yl]-1H-tetrazole]	–	110 nM	Kb ([2]; rabbit aortic rings, 37° C., antagonist 5 min before AII challenge, two rabbits, Schild, read-out: pA2 (converted)): 9.55 nM
CCCCc1nc(CCCC)n(Cc2ccc(-n3c(Cl)cc(Cl)c3-c3nnn[nH]3)cc2)n1 [Example 5, 5-[1-[4-[(3,5-dibutyl-1H-1,2,4-triazol-1-yl)methyl]phenyl]-3,5-dichloro-1H-pyrrol-2-yl]-1H-tetrazole]	–	52 nM	Kb [2]: 20 nM; Inhibition ([3]; percent inhibition of AII pressor response, AII 30 ng/kg i.v., ganglion-blocked anesthetized rats): 85%; Duration ([3]; time from peak percent inhibition to 50% of peak): 75 min
CNCC(=O)N[C@@H](CCCN=C(N)N)C(=O)N[C@H](C(=O)N[C@@H](Cc1ccc(O)cc1)C(=O)N[C@H](C(=O)N[C@@H](Cc1cnc[nH]1)C(=O)N1CCC[C@H]1C(=O)N[C@@H](C)C(=O)O)C(C)C)C(C)C [Saralasin]	significant residual antagonist activity	–	–
CCCCc1nc(Cl)c(CC(=O)O)n1Cc1ccccc1Cl [2-n-butyl-4-chloro-1-(2-chlorobenzyl)imidazole-5-acetic acid]	specific competitive angiotensin II antagonist activity	–	–
Cc1ccc(C(c2ccc(-n3cccc3)cc2)n2cncn2)cc1 (stereo not shown) [1-[(4-methylphenyl)[4-(1H-pyrrol-1-yl)phenyl]methyl]-1H-1,2,4-triazole]	–	–	antibacterial and antifungal properties [4]: antibacterial and antifungal properties

From patent US5175180A, “N-substituted N-(alpha-triazolyl-toluyl)pyrrole compounds and use for treatment of circulatory disorders” (G. D. Searle & Co., priority 1990, dated 1992)
